Experimental data: patent US20250064774A1, “FORMULATIONS AND METHODS OF MAKING AND USING THE SAME” (AraVai Global LLC, priority 2021, published 2025)

Test system: skin of the intrascapular regions of the back
Assay: Repeat insult patch test under occlusive conditions (induction and challenge)
Settings: positive control
Description: The raw material ingredients to be tested under occlusive conditions were placed on an 8-millimeter aluminum Finn Chamber® (Epitest Ltd. Oy, Tuusula, Finland) supported on Scanpor® Tape (Norgesplaster A/S, Kristiansand, Norway) or an 8-millimeter filter paper coated aluminum Finn Chamber® AQUA supported on a thin flexible transparent polyurethane rectangular film coated on one side with a medical grade acrylic adhesive, consistent with adhesive used in state-of-the-art hypoallergenic surgical tape or a 7 mm IQ-ULTRA® closed cell system which is made of additive-free polyethylene plastic foam with a filter paper incorporated. It is supplied in units of 10 chambers on a hypoallergenic non-woven adhesive tape; the width of the tape is 52 mm and the length is 118 mm or other equivalents. […]
Approximately 0.02-0.05 mL for liquid materials and/or 0.02-0.05 g for solid materials of the test material was used for the study. […] Prior to each reapplication, the test sites evaluated by trained laboratory personnel. […] Test sites were evaluated by trained laboratory personnel 48 and 96 hours after application. In the event of an adverse reaction, the area of erythema and edema were measured. […] Subjects were instructed to report any delayed reactions that might occur after the final reading. […]

CCCCCCCCCCCCOS(=O)(=O)[O-].[Na+] [2.0% Sodium Lauryl Sulfate Solution, Sodium Lauryl Sulfate]
subjects with a Grade 1 reaction: ten | subjects with a Grade 4 reaction: one
